Test results published in US11744273B2, “Sweetness enhancing volatile compositions and methods of increasing perceived sweetness of a comestible” (University of Florida Research Foundation, Inc., priority 2016, dated 2023).

System: perceived sweetness intensity
Test: Strawberry consumer panel; initial multiple regression of volatiles against perceived sweetness intensity independent of glucose, fructose or sucrose (Table 5)
Format: in vivo, human
Details: for relation to sweetness intensity independent of sugars: initial step-wise multiple regression; for FRUCTOSE t RATIO / GLUCOSE t RATIO / SUCROSE t RATIO: standard least squares; for FRUCTOSE t RATIO: sweetness intensity independent of fructose; for GLUCOSE t RATIO: sweetness intensity independent of glucose; for SUCROSE t RATIO: sweetness intensity independent of sucrose
Protocol: Step-wise multiple regressions of all volatile compounds against perceived intensity of sweetness is performed independent of either glucose, fructose, or sucrose concentration, separately (Table 5).
At least 100 grams or seven berries of each sample were removed from 4° C. dark overnight storage prior to volatile collection. Samples were homogenized in a blender prior to splitting into three 15 gram replicates for immediate capturing of volatile emission and remainder of sample frozen in N2 (I) and stored at −80° C. for later sugar and acid quantification.
Oven temperatures programmed from 40° C. (0.5 min hold) at 5° C. min^−1 to 250° C. (4 min hold). Signals captured with a flame ionization detector (FID) at 280° C. Peaks from FID signal were integrated manually with Chemstation B.04.01 software (Agilent Technologies, Santa Clara, Calif.). Volatile emission (ng gFW^−1 h^−1) calculated based on individual peak area relative to sample elution standard peak area.
All consumer panels were approved by the University of Florida Institutional Review Board. […] Ages of panelist ranged from 18 to 71, with a median age of 24. Panelists self-classified themselves as 98 White or Caucasian, 11 Black or African-American, 1 Native American, Alaska Native or Aleutian, 41 Asian/Pacific Islander, and 15 Other. […] Fresh, fully-ripe strawberry fruit was removed from overnight 4° C. dark storage and allowed to warm to room temperature prior to sensory analysis. Each panelist was given one to two whole strawberries for evaluation, depending on cultivar availability. Panelist took a bite of each sample, chewed, and swallowed it. Ratings for overall liking and liking for texture were scaled on hedonic general labeled magnitude scale (gLMS) in the context of all pleasure/displeasure experiences. […] Scales were employed to mediate valid comparisons across subjects and sessions.
For the first analysis, individual volatile compound concentrations were regressed using the “enter” method in SPSS Statistics (IBM Corp, Armonk, N.Y., USA).

Compound | relation to sweetness intensity independent of sugars | FRUCTOSE t RATIO | GLUCOSE t RATIO | SUCROSE t RATIO
C=CC(=O)CC [1-penten-3-one] | enhance sweetness intensity |  |  | 
CCCCCC=O [66-25-1] |  | 1.229 | 1.178 | 0.21
CCCCCO [71-41-0] |  | 0.448 | 0.296 | 1.938
CCCCC(=O)C(C)=O [96-04-8] |  | 0.142 | 0.002 | −0.646
CCC(=O)CC [96-22-0] |  | 1.82 | 1.576 | 0.912
CCCCC(CC)COC(C)=O (stereo not drawn) [103-09-3] |  | 0.172 | 0.21 | −1.053
CCCCC(CC)CO (stereo not drawn) [104-76-7] |  | 1.189 | 0.982 | 2.046
CCOC(=O)CC [105-37-3] |  | −0.623 | −0.674 | 1.964
CCCOC(=O)CCC [105-66-8] |  | 0.88 | 0.638 | 2.421
CCCCCCCC(=O)OCC [106-32-1, ethyl octanoate] | negatively related to sweetness |  |  | 
CC(=O)CC(C)C [108-10-1, 4-Methyl-2-pentanone] | negatively related to sweetness |  |  | 
CCCCOC(=O)CC(C)C [109-19-3] |  | 2.005 | 1.954 | 1.662
CCCCOC(=O)CCC [109-21-7] |  | 2.181 | 1.961 | 1.65
CCCOC(C)=O [109-60-4] |  | −0.491 | −0.454 | −0.224
CCCCCCCCCC(=O)OCC [110-38-3] |  | 0.281 | 0.055 | 2.621
CCCCCCCCOC(=O)CCC [110-39-4] |  | 0.96 | 0.814 | 2.645
CCCCC=O [110-62-3] |  | −0.572 | −0.568 | 0.997
CCCCCCC=O [111-71-7] |  | 2.599 | 2.283 | 1.342
CCCCCCCCOC(C)=O [112-14-1] |  | 0.413 | 0.284 | 2.292
CCCCCC(=O)OCC [123-66-0] |  | 0.066 | −0.001 | 1.064
CC(=O)OCCC(C)C [123-92-2] |  | −0.725 | −0.771 | 0.108
CCCCCCCC=O [124-13-0] |  | 0.871 | 0.685 | 0.169

Compound | relation to sweetness intensity independent of sugars | FRUCTOSE t RATIO | GLUCOSE t RATIO | SUCROSE t RATIO
CCCCCCCCC=O [124-19-6] |  | 3.696 | 3.402 | 0.226
Cc1cc(C(C)(C)C)c(O)c(C(C)(C)C)c1 [128-37-0] |  | −0.856 | −1.17 | 0.482
COC(=O)c1ccccc1N [134-20-3] |  | −0.009 | 0.2 | 1.386
CC(=O)OCc1ccccc1 [140-11-4] |  | −0.361 | −0.513 | −1.357
CCCCC(=O)OCC [539-82-2] |  | −0.48 | −0.802 | 2.273
CCCCCOC(=O)CCC [540-18-1, pentyl butyrate] | enhance sweetness intensity |  |  | 
CC1(C)C2CC=C(C=O)C1C2 (stereo not drawn) [564-94-3] |  | 2.588 | 2.455 | −1.322
CCCC(=O)CC [589-38-8] |  | −0.217 | −0.427 | 0.592
CCCCC(C)=O [591-78-6] |  | 2.807 | 2.788 | 0.767
C=CC(O)CC (stereo not drawn) [616-25-1] |  | 1.773 | 1.628 | 0.795
C/C=C/C(=O)OC [623-43-8] |  | 0.248 | 0.54 | −1.396
CCCCC(=O)OC [624-24-8] |  | −0.406 | −0.416 | 0.662
CCC(C)COC(C)=O (stereo not drawn) [624-41-9] |  | −0.433 | −0.494 | −1.323
CCCCCOC(C)=O [628-63-7] |  | 0.882 | 0.749 | 0.427
CCCCCCC1CCC(=O)O1 (stereo not drawn) [706-14-9] |  | 1.247 | 0.879 | 1.65
CCC/C=C/CO [928-95-0] |  | −1.842 | −1.521 | −0.516
CSC(C)=O [1534-08-3] |  | 0.488 | 0.429 | 1.035
CC/C=C\C=O [1576-86-9] |  | 4.16 | 3.915 | 0.935
CC/C=C/C=O [1576-87-0] |  | 4.566 | 4.301 | 1.024
CCCCCCCCC1CCC(=O)O1 (stereo not drawn) [2305-05-7, 5-octyldihydro-2(3H)-furanone] | enhance sweetness intensity |  |  | 
CCCCCC(=O)OC(C)C [2311-46-8] |  | 0.238 | −0.058 | 2.211
CCCC(=O)SC [2432-51-1] |  | −0.956 | −1.092 | 2.033

Compound | relation to sweetness intensity independent of sugars | FRUCTOSE t RATIO | GLUCOSE t RATIO | SUCROSE t RATIO
CCC/C=C/COC(C)=O [2497-18-9] |  | −0.313 | −0.331 | −0.056
CCCCC/C=C/C=O [2548-87-0] |  | 1.76 | 1.509 | 0.067
CCCCCCOC(=O)CCC [2639-63-6, hexyl butyrate] | enhance sweetness intensity |  |  | 
CCCCCCC/C=C/C=O [3913-81-3] |  | 3.694 | 3.494 | 1.411
CCCCCCCCOC(=O)CCCCC [4887-30-3] |  | 0.392 | 0.254 | 2.71
CCCCCCCCCCOC(=O)CCC [5454-09-1] |  | 1.804 | 1.579 | 2.085
CCCCCC(CC)CC [5881-17-4] |  | 2.894 | 2.662 | 0.608
C=C[C@]1(C)CC[C@H](C(C)(C)O)O1 [5989-33-3] |  | 1.869 | 1.561 | 1.953
CCOC(=O)C(C)CC (stereo not drawn) [7452-79-1] |  | 1.959 | 1.993 | −0.785
CCCCCCCCOC(=O)CC(C)C [7786-58-5] |  | 0.362 | 0.227 | 2.027
CCCCCCCCCOC(=O)C(C)C [10522-34-6] |  | 0.536 | 0.288 | 2.049
C=C(C)C1CC=C(COC(C)=O)CC1 (stereo not drawn) [15111-96-3] |  | 0.23 | 0.192 | 0.927
CCCCC/C=C\C=O [20664-46-4] |  | −0.17 | −0.395 | 1.383
CCC(O)C(=O)OC (stereo not drawn) [29674-47-3] |  | 1.339 | 1.362 | 0.035
CCCCCCCCOC(=O)C(C)CC (stereo not drawn) [29811-50-5] |  | 0.016 | −0.098 | 0.358
C=CC(C)(O)CC/C=C(\C)CCC=C(C)C (stereo not drawn) [40716-66-3] |  | 1.521 | 1.202 | 1
CC=C(C)C(=O)OCC [55514-48-2] |  | −0.644 | −0.675 | −0.889
CCCC(=O)OC(C)CCC (stereo not drawn) [60415-61-4, 2-pentanyl butyrate] | enhance sweetness intensity |  |  | 
CCCCCCOC(C)=O [hexyl acetate] | enhance sweetness intensity |  |  | 
CC(=O)OCC=C(C)C [prenyl acetate, 3-methyl-2-buten-1-yl acetate] | negatively related to sweetness |  |  | 
